# Assay results taken from ChEMBL document CHEMBL4270566, “New aziridine-based inhibitors of cathepsin L-like cysteine proteases with selectivity for the Leishmania cysteine protease LmCPB2.8” (Eur J Med Chem, 2018).
# Calls of active or inactive are those of the source. The rule behind the calls is not given here.
# What was measured:
# Procathepsin L [1] = target: T1, Procathepsin L (Homo sapiens, UniProt P07711); assay: Inhibition of human cathepsin-L at 20 uM using Z-Phe-Arg-AMC as substrate by fluorometric assay relative to control
# Target sequence in this assay (P07711 114-333 limits assumed): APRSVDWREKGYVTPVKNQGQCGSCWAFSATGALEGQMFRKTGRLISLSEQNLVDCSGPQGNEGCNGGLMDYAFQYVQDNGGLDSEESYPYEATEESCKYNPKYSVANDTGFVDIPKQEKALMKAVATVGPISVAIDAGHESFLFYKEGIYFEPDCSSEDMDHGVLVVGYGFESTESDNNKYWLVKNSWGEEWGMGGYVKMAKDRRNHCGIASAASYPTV
# Cathepsin B = Cathepsin B (Homo sapiens, UniProt P07858); assay: Inhibition of human cathepsin-B at 20 uM using Z-Phe-Arg-AMC as substrate by fluorometric assay relative to control
# [2] = target: T2, Falcipain 2 (Plasmodium falciparum) (UniProt Q9N6S8); assay: Inhibition of Plasmodium falciparum falcipain 2 at 20 uM using Z-Phe-Arg-AMC as substrate by fluorometric assay relative to control
# T2 sequence (whole entry): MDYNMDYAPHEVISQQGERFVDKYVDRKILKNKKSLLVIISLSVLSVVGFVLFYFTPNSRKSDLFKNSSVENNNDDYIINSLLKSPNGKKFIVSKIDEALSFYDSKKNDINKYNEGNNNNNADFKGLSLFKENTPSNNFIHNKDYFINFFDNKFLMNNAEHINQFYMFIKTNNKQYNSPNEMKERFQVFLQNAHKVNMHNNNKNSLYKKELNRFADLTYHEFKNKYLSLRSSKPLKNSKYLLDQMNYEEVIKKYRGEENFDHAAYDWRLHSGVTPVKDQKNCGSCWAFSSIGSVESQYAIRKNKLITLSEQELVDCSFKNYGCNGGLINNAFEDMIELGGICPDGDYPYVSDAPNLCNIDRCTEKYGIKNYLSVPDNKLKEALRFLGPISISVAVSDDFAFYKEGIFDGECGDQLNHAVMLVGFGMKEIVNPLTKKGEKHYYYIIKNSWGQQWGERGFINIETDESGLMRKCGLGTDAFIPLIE
# Leishmania major [3] = assay: Antileishmanial activity against Leishmania major promastigotes at 20 uM; type: functional, organism-based
# Leishmania major [4] = assay: Antileishmanial activity against Leishmania major promastigotes; type: functional, organism-based
# Leishmania major [5] = assay: Antileishmanial activity against luciferase-fused Leishmania major amastigotes infected in BMDM after 24 hrs by luminescence assay; type: functional, organism-based
# Procathepsin L [6] = target: T1, Procathepsin L; assay: Inhibition of human cathepsin-L using Z-Phe-Arg-AMC as substrate by fluorometric assay
# Target sequence in this assay (P07711 whole entry): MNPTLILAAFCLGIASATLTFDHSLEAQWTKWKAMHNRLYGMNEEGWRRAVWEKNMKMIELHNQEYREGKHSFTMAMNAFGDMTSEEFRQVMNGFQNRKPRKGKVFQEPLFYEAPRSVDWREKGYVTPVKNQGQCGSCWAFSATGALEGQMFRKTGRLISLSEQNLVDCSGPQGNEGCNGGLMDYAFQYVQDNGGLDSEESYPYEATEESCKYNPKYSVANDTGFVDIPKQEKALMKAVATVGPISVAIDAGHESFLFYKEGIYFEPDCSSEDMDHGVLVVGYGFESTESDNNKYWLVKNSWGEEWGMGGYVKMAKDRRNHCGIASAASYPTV
# [7] = Inhibition of Leishmania mexicana cathepsin L-like protease CPB2.8 using Z-Phe-Arg-AMC as substrate by fluorometric assay
# Falcipain 2 = target: T3, Falcipain 2 (Plasmodium falciparum, UniProt Q9N6S8); assay: Inhibition of Plasmodium falciparum falcipain 2 using Z-Phe-Arg-AMC as substrate by fluorometric assay
# T3 sequence (Q9N6S8 whole entry): T2 sequence (whole entry)
# Cruzipain = Cruzipain (Trypanosoma cruzi, UniProt P25779); assay: Inhibition of Trypanosoma cruzi cruzain using Z-Phe-Arg-AMC as substrate by fluorometric assay
# Leishmania mexicana [8] = assay: Inhibition of Leishmania mexicana cathepsin L-like protease CPB2.8 at 20 uM using Z-Phe-Arg-AMC as substrate by fluorometric assay relative to control
# [9] = target: Cruzipain (Trypanosoma cruzi) (UniProt P25779); assay: Inhibition of Trypanosoma cruzi cruzain at 20 uM using Z-Phe-Arg-AMC as substrate by fluorometric assay relative to control
# [10] = target: Rhodesain (Trypanosoma brucei rhodesiense) (UniProt Q95PM0); assay: Inhibition of Trypanosoma brucei rhodesiense rhodesain at 20 uM using Z-Phe-Arg-AMC as substrate by fluorometric assay relative to control
# [11] = target: T2, Falcipain 2 (Plasmodium falciparum); assay: Inhibition of Plasmodium falciparum falcipain 2 assessed as second order inactivation rate constant using Z-Phe-Arg-AMC as substrate by fluorometric assay
# Procathepsin L [12] = target: T1, Procathepsin L; assay: Inhibition of human cathepsin-L assessed as second order inactivation rate constant using Z-Phe-Arg-AMC as substrate by fluorometric assay
# Target sequence in this assay (P07711 114-333 limits assumed): as the sequence (P07711 114-333 limits assumed) above
# Rhodesain = Rhodesain (Trypanosoma brucei rhodesiense, UniProt Q95PM0); assay: Inhibition of Trypanosoma brucei rhodesiense rhodesain using Z-Phe-Arg-AMC as substrate by fluorometric assay
# [13] = target: Rhodesain (Trypanosoma brucei rhodesiense) (UniProt Q95PM0); assay: Inhibition of Trypanosoma brucei rhodesiense rhodesain assessed as second order inactivation rate constant using Z-Phe-Arg-AMC as substrate by fluorometric assay
# [14] = target: Cruzipain (Trypanosoma cruzi) (UniProt P25779); assay: Inhibition of Trypanosoma cruzi cruzain assessed as second order inactivation rate constant using Z-Phe-Arg-AMC as substrate by fluorometric assay
# Leishmania mexicana [15] = assay: Inhibition of Leishmania mexicana cathepsin L-like protease CPB2.8 assessed as second order inactivation rate constant using Z-Phe-Arg-AMC as substrate by fluorometric assay
# Sequence of Rhodesain (Trypanosoma brucei rhodesiense) (Q95PM0 1-450): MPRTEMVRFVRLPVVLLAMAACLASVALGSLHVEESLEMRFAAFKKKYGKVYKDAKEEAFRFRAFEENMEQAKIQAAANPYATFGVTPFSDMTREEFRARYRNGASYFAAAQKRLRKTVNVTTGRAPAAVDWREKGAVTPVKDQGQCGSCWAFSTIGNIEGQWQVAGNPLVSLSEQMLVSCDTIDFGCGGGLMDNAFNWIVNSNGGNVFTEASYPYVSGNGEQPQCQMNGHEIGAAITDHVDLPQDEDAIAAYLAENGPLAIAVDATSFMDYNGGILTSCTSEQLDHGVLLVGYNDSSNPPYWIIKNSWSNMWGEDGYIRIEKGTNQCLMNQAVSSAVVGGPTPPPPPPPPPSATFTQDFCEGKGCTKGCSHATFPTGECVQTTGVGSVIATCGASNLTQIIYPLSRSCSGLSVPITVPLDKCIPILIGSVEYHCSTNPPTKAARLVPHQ
# Sequence of Cruzipain (Trypanosoma cruzi) (P25779 123-467 limits assumed): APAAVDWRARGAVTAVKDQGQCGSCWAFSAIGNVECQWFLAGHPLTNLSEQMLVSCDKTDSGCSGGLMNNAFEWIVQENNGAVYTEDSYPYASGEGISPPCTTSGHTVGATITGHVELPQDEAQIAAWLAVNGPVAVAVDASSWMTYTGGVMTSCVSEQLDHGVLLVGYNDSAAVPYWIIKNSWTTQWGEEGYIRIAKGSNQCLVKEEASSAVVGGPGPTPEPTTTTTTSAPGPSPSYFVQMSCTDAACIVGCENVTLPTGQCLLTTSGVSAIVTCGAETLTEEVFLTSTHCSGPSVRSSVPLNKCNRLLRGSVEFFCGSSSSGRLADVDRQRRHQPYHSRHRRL
# Sequence of Cruzipain (P25779 whole entry): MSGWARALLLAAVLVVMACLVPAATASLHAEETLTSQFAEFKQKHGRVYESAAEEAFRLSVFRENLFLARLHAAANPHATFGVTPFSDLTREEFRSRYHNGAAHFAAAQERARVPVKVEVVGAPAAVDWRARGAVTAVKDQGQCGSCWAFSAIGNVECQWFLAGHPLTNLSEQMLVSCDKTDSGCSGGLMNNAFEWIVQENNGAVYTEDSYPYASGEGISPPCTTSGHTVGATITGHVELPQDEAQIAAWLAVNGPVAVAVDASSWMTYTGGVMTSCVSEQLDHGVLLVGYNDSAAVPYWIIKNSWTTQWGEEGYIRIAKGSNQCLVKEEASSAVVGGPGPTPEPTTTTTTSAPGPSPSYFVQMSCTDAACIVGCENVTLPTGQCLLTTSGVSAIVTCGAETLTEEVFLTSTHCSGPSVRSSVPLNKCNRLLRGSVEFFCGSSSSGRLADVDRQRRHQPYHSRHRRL
# Sequence of Rhodesain (Q95PM0 whole entry): as the sequence (Q95PM0 1-450) above
SMILES,inhibition (Procathepsin L [1]),inhibition (Cathepsin B),inhibition [2],Activity (Leishmania major [3]),EC50 (Leishmania major [4]),EC50 (Leishmania major [5]),Ki (Procathepsin L [6]),Ki [7],Ki (Falcipain 2),Ki (Cruzipain),inhibition (Leishmania mexicana [8]),inhibition [9],inhibition [10],K [11],K (Procathepsin L [12]),Ki (Rhodesain),K [13],K [14],K (Leishmania mexicana [15])
CC(C)C[C@H](NC(=O)OC(C)(C)C)C(=O)N1CCC[C@H]1C(=O)N1[C@H](C(=O)OCc2ccccc2)[C@H]1C(=O)OCc1ccccc1,inactive,inactive,inactive,inactive,–,–,–,–,–,–,–,–,–,–,–,–,–,–,–
CC(C)C[C@H](NC(=O)OC(C)(C)C)C(=O)N1CCC[C@@H]1C(=O)N1[C@H](C(=O)OCc2ccccc2)[C@H]1C(=O)OCc1ccccc1,–,inactive,–,–,39.6 µM,2200 nM,6 µM,1700 nM,43.9 µM,0.9 µM,–,–,–,–,–,–,–,–,–
CC(C)C[C@H](NC(=O)OC(C)(C)C)C(=O)N1CCC[C@@H]1C(=O)N1C(C(=O)OCCc2ccccc2)C1C(=O)OCCc1ccccc1 (mixture of isomers),< 50%,inactive,< 50%,–,–,–,–,1600 nM,–,7.7 µM,> 50%,> 50%,< 50%,–,–,–,–,–,–
CC(C)C[C@H](NC(=O)OC(C)(C)C)C(=O)N1CCC[C@@H]1C(=O)N1C(C(=O)OCc2ccccc2)C1C(=O)OCC1CCCCC1 (mixture of isomers),< 50%,inactive,< 50%,–,–,–,–,1800 nM,–,7.6 µM,> 50%,> 50%,< 50%,–,–,–,–,–,–
CC(C)C[C@H](NC(=O)OC(C)(C)C)C(=O)N1CCC[C@@H]1C(=O)N1C(C(=O)O)C1C(=O)OC(C)(C)C (mixture of isomers),< 50%,inactive,< 50%,–,–,–,–,–,–,–,< 50%,< 50%,< 50%,–,–,–,–,–,–
CC(C)C[C@H](NC(=O)OC(C)(C)C)C(=O)N1CCC[C@@H]1C(=O)N1C(C(=O)O)C1C(=O)OCC1CCCCC1 (mixture of isomers),> 50%,inactive,> 50%,–,–,–,7.3 µM,1790 nM,0.45 µM,0.71 µM,> 50%,> 50%,> 50%,76800 M⁻¹ min⁻¹,13900 M⁻¹ min⁻¹,120 nM,494000 M⁻¹ min⁻¹,323000 M⁻¹ min⁻¹,53600 M⁻¹ min⁻¹
CC(C)C[C@H](NC(=O)OC(C)(C)C)C(=O)N1CCC[C@@H]1C(=O)N1C(C(=O)OCc2ccccc2)C1C(=O)OCc1ccccc1 (mixture of isomers),> 50%,inactive,> 50%,–,–,–,12 µM,2800 nM,–,1.8 µM,> 50%,> 50%,> 50%,–,–,1500 nM,–,–,–
CC(C)C[C@H](NC(=O)OC(C)(C)C)C(=O)N1CCC[C@@H]1C(=O)N1C(C(=O)OCCCc2ccccc2)C1C(=O)OCc1ccccc1 (mixture of isomers),< 50%,inactive,< 50%,–,–,–,–,1360 nM,–,–,> 50%,< 50%,< 50%,–,–,–,–,–,–
CC(C)C[C@H](NC(=O)OC(C)(C)C)C(=O)N1CCC[C@@H]1C(=O)N1C(C(=O)OCCc2ccccc2)C1C(=O)OCc1ccccc1 (mixture of isomers),< 50%,inactive,< 50%,–,–,–,–,1920 nM,–,5.5 µM,> 50%,> 50%,< 50%,–,–,–,–,–,–
CC(C)C[C@@H](NC(=O)OC(C)(C)C)C(=O)N1CCC[C@@H]1C(=O)N1[C@H](C(=O)OCc2ccccc2)[C@H]1C(=O)OCc1ccccc1,inactive,inactive,inactive,inactive,–,–,–,–,–,–,–,–,–,–,–,–,–,–,–
CCOC(=O)C1C(C(=O)O)N1C(=O)[C@H]1CCCN1C(=O)[C@H](CC(C)C)NC(=O)OC(C)(C)C (mixture of isomers),< 50%,inactive,< 50%,–,–,–,–,–,–,–,< 50%,< 50%,< 50%,–,–,–,–,–,–
